Patent US8993585B2, “Cyclic amine substituted pyrimidinediamines as PKC inhibitors” (Rigel Pharmaceuticals, Inc., priority 2007, dated 2015)

How the values were obtained:
PKC theta = target: T1, PKC theta (Homo sapiens, UniProt Q04759); assay: PKC assay, fluorescence polarization (Example 2), PKC theta; format: biochemical; conditions: 5 μM ATP
T1 construct: purchased Upstate Biotechnologies, Temecula, CA 14-444
Method in brief: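 Phosphorylated peptide product detected by fluorescence polarization, with EDTA quench plus peptide tracer and antibody. Reaction in 20 mM HEPES pH 7.4, 5 mM MgCl2, 0.2 mM CaCl2, 1 mM DTT, 0.02% Brij-35, phosphatidylserine and dioleoyl-sn-glycerol, with 5 μM ATP and 5 μM peptide. Started with enzyme, 20 min at room temperature.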

Human primary T cells = assay: IL-2 ELISA, Human Primary T Cell, Anti-CD3+CD28+ (Example 3); format: cell-based; conditions: anti-CD3+CD28 stimulation
Method in brief: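 IL-2 was read by ELISA after stimulation on wells pre-coated with 1 ug/ml αCD3 and 5 μg/ml αCD28. Before this, 100,000 human primary T cells per well spent 1 h at 37 °C with test compound in Yssel's medium. The counter-screen replaced antibody stimulation with PMA (0.5 ng/ml final) and ionomycin (0.1 uM final).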

PKC epsilon = target: T2, PKC epsilon (Homo sapiens, UniProt Q02156); assay: PKC assay, fluorescence polarization (Example 2), PKC epsilon; format: biochemical; conditions: 5 μM ATP
T2 construct: purchased Upstate Biotechnologies, Temecula, CA 14-518
T2 sequence (Q02156 1-737): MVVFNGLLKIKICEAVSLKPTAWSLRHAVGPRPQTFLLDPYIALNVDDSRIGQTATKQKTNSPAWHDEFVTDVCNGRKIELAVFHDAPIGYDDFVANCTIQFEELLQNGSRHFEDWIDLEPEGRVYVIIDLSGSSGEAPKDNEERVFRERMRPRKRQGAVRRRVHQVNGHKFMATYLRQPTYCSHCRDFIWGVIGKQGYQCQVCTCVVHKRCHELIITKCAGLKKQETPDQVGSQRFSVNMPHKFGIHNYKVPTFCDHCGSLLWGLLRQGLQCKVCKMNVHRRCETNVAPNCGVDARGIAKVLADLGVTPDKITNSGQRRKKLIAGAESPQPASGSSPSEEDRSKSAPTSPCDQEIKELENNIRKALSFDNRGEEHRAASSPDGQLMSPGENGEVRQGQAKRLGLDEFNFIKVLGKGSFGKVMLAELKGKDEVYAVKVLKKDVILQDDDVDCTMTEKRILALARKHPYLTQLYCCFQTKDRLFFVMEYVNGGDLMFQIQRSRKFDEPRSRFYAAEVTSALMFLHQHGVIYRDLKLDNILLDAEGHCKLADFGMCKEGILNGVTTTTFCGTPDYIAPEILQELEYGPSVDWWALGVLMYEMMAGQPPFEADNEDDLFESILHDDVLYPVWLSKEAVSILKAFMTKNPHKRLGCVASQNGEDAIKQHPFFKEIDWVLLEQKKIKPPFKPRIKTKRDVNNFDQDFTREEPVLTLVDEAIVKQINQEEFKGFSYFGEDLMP
Method: The inhibition of PKC activity was measured by monitoring the production of phosphorylated peptide by fluorescence polarization at different concentrations of the inhibitor. Reactions were carried out in 96-well plate format with a total volume of 20 μL containing 20 mM HEPES, pH 7.4, 5 mM MgCl2, 0.2 mM CaCl2, 1 mM DTT, 0.02% Brij-35, 0.1 mg/mL phosphatidylserine, 0.02 mg/mL dioleoyl-sn-glycerol and 5 μM each of ATP and the peptide substrate. Compounds were first diluted serially in DMSO and then transferred to a solution containing the above concentrations of HEPES, MgCl2, CaCl2, DTT, and Brij-35 to yield 5× compound solutions in 2% DMSO, which was then added to the reaction solution. Reactions were initiated by the addition of PKC at a typical concentration as described in Table VI, and then allowed to incubate at room temperature for 20 min. At the end of this time, a combination of quench (EDTA) and detection (peptide tracer and antibody) reagents was added using the protocol of Invitrogen P2748.

T1 sequence (Q04759 whole entry): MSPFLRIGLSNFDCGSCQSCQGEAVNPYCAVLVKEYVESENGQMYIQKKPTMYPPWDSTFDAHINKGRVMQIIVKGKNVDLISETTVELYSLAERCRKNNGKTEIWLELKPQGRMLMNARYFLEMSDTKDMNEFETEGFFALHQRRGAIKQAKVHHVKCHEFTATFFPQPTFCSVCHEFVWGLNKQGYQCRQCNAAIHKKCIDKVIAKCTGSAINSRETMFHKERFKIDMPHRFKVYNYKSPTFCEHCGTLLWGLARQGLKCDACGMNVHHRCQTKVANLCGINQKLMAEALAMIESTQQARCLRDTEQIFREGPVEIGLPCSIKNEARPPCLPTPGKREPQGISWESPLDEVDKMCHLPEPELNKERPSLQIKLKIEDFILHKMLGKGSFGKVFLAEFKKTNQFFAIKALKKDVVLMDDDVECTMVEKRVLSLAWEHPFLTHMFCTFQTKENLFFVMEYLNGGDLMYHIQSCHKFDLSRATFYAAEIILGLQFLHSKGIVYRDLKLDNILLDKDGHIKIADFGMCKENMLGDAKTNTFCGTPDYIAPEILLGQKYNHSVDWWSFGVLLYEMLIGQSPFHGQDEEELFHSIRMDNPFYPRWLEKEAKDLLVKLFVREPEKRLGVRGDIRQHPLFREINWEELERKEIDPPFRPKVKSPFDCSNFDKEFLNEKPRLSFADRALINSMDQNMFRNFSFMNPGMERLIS

Compound	IC50 (PKC theta) [nM]	IC50 (Human primary T cells; Homo sapiens, T-cell, 24 h) [nM]	IC50 (PKC epsilon) [nM]	IC50 (Human primary T cells; 24 hours) [nM]
CN1C(C)(C)CC(Nc2nc(Nc3ccc(N4CCN(S(C)(=O)=O)CC4)c(Cl)c3)ncc2C#N)CC1(C)C [Compound I-102]	12.6	217	218	–
CN1C(C)(C)CC(Nc2nc(Nc3cccc(-c4ccoc4)c3)ncc2F)CC1(C)C [Compound I-105]	26	221	154	–
CCN1C(=O)C(C)(C)Oc2cc(Nc3ncc(F)c(NC4CC(C)(C)N(C)C(C)(C)C4)n3)ccc21 [II-35]	8.94	142	159	–
CCCN1CCN(c2cc(Nc3ncc(F)c(NC4CC(C)(C)N(C)C(C)(C)C4)n3)ccc2C(F)(F)F)CC1 [Compound I-218]	6.52	216	18.4	–
CN1C(C)(C)CC(Nc2nc(Nc3ccc(-c4ccncc4)c(C(F)(F)F)c3)ncc2F)CC1(C)C [Compound I-96]	4.56	177	81.7	–
Cc1ccc(Nc2ncc(F)c(NC3CC(C)(C)N(C)C(C)(C)C3)n2)cc1-c1cccnc1 [Compound I-197]	4.38	–	60.3	237
Cc1cc(Nc2ncc(F)c(NC3CC(C)(C)N(C)C(C)(C)C3)n2)ccc1-c1cccnc1 [Compound I-121]	23.7	268	15.8	–
CN1C(C)(C)CC(Nc2nc(Nc3ccc(N4CCN(S(C)(=O)=O)CC4)c(Cl)c3)ncc2C(F)(F)F)CC1(C)C [Compound I-92]	4.56	208	271	–
COc1ccc(Nc2ncc(F)c(NC3CC(C)(C)N(C)C(C)(C)C3)n2)cc1C(F)(F)F [Compound I-147]	8.01	168	115	–
CSc1nnnn1-c1cccc(Nc2ncc(C(N)=O)c(NC3CC(C)(C)N(C)C(C)(C)C3)n2)c1 [Compound I-456]	6.3	350	49	–
CN1C(C)(C)CC(Nc2nc(Nc3ccc(F)c(C#N)c3)ncc2F)CC1(C)C [Compound I-140]	5.48	229	158	–
CN1C(C)(C)CC(Nc2nc(Nc3ccc4ncccc4c3)ncc2F)CC1(C)C [II-1]	9.66	612	144	–
CN1C(C)(C)CC(Nc2nc(Nc3ccc4c(c3)oc(=O)n4CC3CC3)ncc2F)CC1(C)C [II-163]	6.1	280	140	–
Cc1ccc(Nc2ncc(F)c(NC3CC(C)(C)N(C)C(C)(C)C3)n2)cc1-c1ccoc1 [Compound I-188]	4.74	178	36.7	–
COc1cc(Nc2ncc(C(F)(F)F)c(NC3CC(C)(C)N(C)C(C)(C)C3)n2)cc(-n2cnnn2)c1 [Compound I-356]	7.26	96	43	–
CN1C(C)(C)CC(Nc2nc(Nc3cccc(Br)c3)ncc2F)CC1(C)C [Compound I-104]	15.8	79.8	62.8	–
CN1C(=O)C(C)(C)Oc2cc(Nc3ncc(F)c(NC4CC(C)(C)N(C)C(C)(C)C4)n3)ccc21 [II-34]	15.7	224	102	–
CN1C(C)(C)CC(Nc2nc(Nc3cccc(-n4cnnn4)c3)ncc2F)CC1(C)C [Compound I-357]	5.11	67.6	7.11	–
CN1C(C)(C)CC(Nc2nc(Nc3ccc(-n4cccc4)c(C#N)c3)ncc2F)CC1(C)C [Compound I-148]	13.5	223	150	–
COc1cc(Nc2ncc(F)c(NC3CC(C)(C)N(C)C(C)(C)C3)n2)cc(OC)c1 [Compound I-129]	4.19	214	26.8	–

The next lines start with the values.

IC50 (PKC theta) [nM]	IC50 (Human primary T cells; Homo sapiens, T-cell, 24 h) [nM]	IC50 (PKC epsilon) [nM]	IC50 (Human primary T cells; 24 hours) [nM]	Compound
1.1	180	157	–	COc1ccc(Nc2ncc(F)c(NC3CC(C)(C)NC(C)(C)C3)n2)cc1OC(F)F [Compound I-444]
3.2	250	115	–	CCOc1ccc(Nc2ncc(C(N)=O)c(NC3CC(C)(C)N(C)C(C)(C)C3)n2)cc1-n1nnnc1CC [Compound I-420]
1.58	289	175	–	CN1C(C)(C)CC(Nc2nc(Nc3cccc(C#N)c3)ncc2C#N)CC1(C)C [Compound I-97]
0.81	243	160	–	CN1CCN(c2ccc(Nc3ncc(C(F)(F)F)c(NC4CC(C)(C)N(C)C(C)(C)C4)n3)cc2C#N)CC1 [Compound I-178]
3.3	80	13	–	CSc1nnnn1-c1cccc(Nc2ncc(F)c(NC3CC(C)(C)NC(C)(C)C3)n2)c1 [Compound I-416]
1.5	120	129	–	CCOc1ccc(Nc2ncc(C#N)c(NC3CC(C)(C)NC(C)(C)C3)n2)cc1-n1nnnc1CC [Compound I-469]
2.88	135	9.58	–	CN1C(C)(C)CC(Nc2nc(Nc3ccc(N4CCSCC4)c(C#N)c3)ncc2F)CC1(C)C [Compound I-199]
2.4	260	775	–	CC1(C)CC(Nc2nc(Nc3ccc4c(c3)OCC(=O)N4CCF)ncc2C#N)CC(C)(C)N1 [II-171]
3.37	117	9.94	–	CCN1CCN(c2ccc(Nc3ncc(F)c(NC4CC(C)(C)N(C)C(C)(C)C4)n3)cc2C(F)(F)F)CC1 [Compound I-246]
3.66	172	100	–	COc1ccc(Nc2ncc(F)c(NC3CC(C)(C)N(C)C(C)(C)C3)n2)cc1-n1c(C)ccc1C [Compound I-348]
0.3	50	22	–	Cc1ccc(Nc2ncc(C#N)c(NC3CC(C)(C)N(C)C(C)(C)C3)n2)cc1-n1cnnn1 [Compound I-459]
2.92	80.7	31	–	Cc1ccc(Nc2ncc(F)c(NC3CC(C)(C)N(C)C(C)(C)C3)n2)cc1C#N [Compound I-142]
4.17	233	54.8	–	COc1cc(Nc2ncc(C(F)(F)F)c(NC3CC(C)(C)N(C)C(C)(C)C3)n2)cc(OC)c1 [Compound I-363]
3.88	210	65.8	–	CCN1C(=O)C(F)(F)Oc2cc(Nc3ncc(F)c(NC4CC(C)(C)N(C)C(C)(C)C4)n3)cnc21 [II-27]
4.1	270	27.8	–	COc1cc(Nc2ncc(C#N)c(NC3CC(C)(C)N(C)C(C)(C)C3)n2)cc(OC)c1 [Compound I-364]
1.27	156	16.8	–	CN1C(C)(C)CC(Nc2nc(Nc3ccc(N4CCOCC4)c(OC(F)F)c3)ncc2F)CC1(C)C [Compound I-235]
3.41	161	589	–	COc1ccc(Nc2ncc(C(F)(F)F)c(NC3CC(C)(C)N(C)C(C)(C)C3)n2)cc1OC(F)F [Compound I-350]
0.5	60	13	–	CCOc1ccc(Nc2ncc(F)c(NC3CC(C)(C)NC(C)(C)C3)n2)cc1-n1nnnc1CC [Compound I-415]
0.62	56.6	7.34	–	COc1cc(Nc2ncc(C#N)c(NC3CC(C)(C)N(C)C(C)(C)C3)n2)cc(-n2nnnc2C)c1 [Compound I-365]
1.35	26.4	27.1	–	CCN1C(=O)C(F)(F)Oc2cc(Nc3ncc(F)c(NC4CC(C)(C)N(C)C(C)(C)C4)n3)ccc21 [II-31]
2.59	344	208	–	COc1ccc(Nc2ncc(C#N)c(NC3CC(C)(C)N(C)C(C)(C)C3)n2)cc1Cl [Compound I-93]
